The source of these data is patent US10420815B2, “Combinational therapy for synergistic inhibition of gram-positive and gram-negative bacteria” (priority 2015, dated 2019).

Where “and” joins values, the source holds several entries; their conditions need not be identical. Identical values can stand only once. Entries after “also recorded” stand apart in the source; their conditions may differ. Like-named read-outs stand apart in the source and are kept apart here.

Format in all cases: cell-based, Staphylococcus aureus
In assay [1] the test system is MRSA 3903. Nature of the assay: microbe, parasite or virus in culture. From the text:
(§1) MRSA (ATCC 33593), MSSA (ATCC 29213), and MRSA USA300 (BAA-1680) strains were purchased from the American Type Culture Collection (ATCC; Manassas, Va.). Eight clinical isolates of MRSA were obtained from the Culture Collection of Antimicrobial Resistant Microbes, Korea National Research Resource Center (KNRRC). Salmonella enterica Typhimurium LT2 was purchased from ATCC, and Escherichia coli O157:H7 is a kind gift from Dr. Sangryeol Ryu (Seoul National University, South Korea). All S. aureus strains were maintained in Trypticase Soy (TS) medium, and E. coli O157:H7 and Salmonella were routinely grown aerobically on Luria-Bertani (LB) media at 37° C. For measuring growth kinetics, an overnight culture of MRSA in Mueller-Hinton (MH) broth was diluted 100-fold in fresh MH broth and cultured until early exponential phase. The culture (200 μl) was transferred to each well of a sterile 96-well plate and incubated at 37° C. with bacitracin alone, alkyl gallate alone, and combination of bacitracin/alkyl gallates at various concentrations. The optical density at 600 nm (OD600) was measured every hour with FLUOstar® Omega (BMG Labtech, Germany).
(§2) Broth micro dilution assays were performed to determine the minimum inhibitory concentrations (MIC) accordance to the M7-A7 protocol of the Clinical and Laboratory Standards Institute (CLSI) guidelines^28. The susceptibility test was carried out with an initial bacterial inoculum of 1.5×10^5 CFU ml^−1. Alkyl gallates and bacitracin were serially diluted in a polystyrene 96 well plate and the plate was incubated at 37° C. for 24 h. Minimum bactericidal concentration (MBC) was determined by spotting 10 μl of cultures from MIC tests onto MH agar and incubated aerobically at 37° C.

Assay [2] relates to MRSA 3865. Nature of the assay: microbe, parasite or virus in culture.
Excerpt: as §1, §2

In assay [3] the test system is MRSA 3823. Nature of the assay: microbe, parasite or virus in culture.
Excerpt: as §1, §2

Assay [4] deals with MRSA 3876. The assay can be described thus: microbe, parasite or virus in culture.
Excerpt: as §1, §2

Assay [5] relates to MRSA 3799. Nature of the assay: microbe, parasite or virus in culture.
Excerpt: as §1, §2

Assay [6] relates to MRSA 3795. The assay can be described thus: microbe, parasite or virus in culture.
Excerpt: as §1, §2

Assay [7] relates to MRSA 3A585. Nature of the assay: microbe, parasite or virus in culture.
Excerpt: as §1, §2

Assay [8] deals with MSSA (ATCC 29213). Nature of the assay: MIC (broth dilution) and MBC (spotting) of phenolic antioxidants and bacitracin. As to conditions: for MIC: antioxidant alone; for fold decrease of bacitracin MBC by antioxidant: compared to bacitracin alone.
Excerpt: as §1, §2
(§3) MICs were determined with MRSA and methicillin-sensitive S. aureus (MSSA) using a broth dilution method as described above.
(§4) MRSA and MSSA were cultured overnight with antioxidants (0.5 μg/ml) and bacitracin at various concentrations and 10 μL of the culture was spotted on MH agar plates and incubated aerobically at 37° C. to observe the bacterial viability. The results in FIGS. 9A, 9B, 9C and 9D (photographs of plates) show the Minimal Bactericidal Concentrations (MBCs) for indicated antioxidants. Bacitracin killed MRSA and MSSA at concentrations greater than or equal to 2 μg/mi.

Assay [9] has as its system MRSA (ATCC 33593). Nature of the assay: microbe, parasite or virus in culture. As to conditions: for fold decrease of bacitracin MBC by antioxidant: compared to bacitracin alone.
Excerpt: as §1, §2, §3, §4

Assay [10] has as its system MRSA (normal MRSA strain, not USA300). Nature of the assay: MRSA growth (optical density) with bacitracin and phenolic antioxidants. The note with it: for growth of MRSA with bacitracin plus antioxidant: bacitracin 0.002 μg/mL, antioxidant 0.5 μg/mL, FIG. 6; for optical density of MRSA after 18 h culture: inhibition of growth in combination with bacitracin: bacitracin 0.002 μg/ml (ca. 0.0002 U), antioxidant 0.5 μg/ml, FIG. 8.
Excerpt: as §1
MRSA were grown with bacitracin (0.002 μg/mL) with antioxidant (as shown) at 0.5 μg/mL.
FIG. 7A is growth with no added bacitracin or lauryl gallate.
The optical density of MRSA was measured after 18 h culture with bacitracin (0.002 μg/ml) and antioxidants (as indicated at 0.5 μg/ml). Also measured were controls with no additions, with bacitracin alone and with antioxidant alone. FIGS. 8A, 8B, 8C and 8D are graphs illustrating the results.

Assay [11] has as its system MRSA 3095. The assay can be described thus: microbe, parasite or virus in culture. As to conditions: Staphylococcus aureus; MRSA 3095 (human/skin); read-out: MIC.
Excerpt: as §1, §2

[12] abbreviates: Staphylococcus aureus, read-out: MIC.
Setting [13] is: Staphylococcus aureus, MRSA, antioxidant alone, read-out: MIC.
Setting [14] is: Staphylococcus aureus, MRSA 3903 (human/skin), read-out: MIC.
Setting [15] is: Staphylococcus aureus, MRSA 3865 (human/skin), read-out: MIC.
Where [16] appears, read: Staphylococcus aureus, MRSA 3823 (human/nose), read-out: MIC.
[17] abbreviates: Staphylococcus aureus, MRSA 3876 (human/skin), read-out: MIC.
The mark [18] stands for this setting: Staphylococcus aureus, MRSA 3799 (human/nose), read-out: MIC.
Where [19] appears, read: Staphylococcus aureus, MRSA 3795 (human/nose), read-out: MIC.

In the case of gentamicin, the MIC was not below 128 µg/mL in assay [1] (MRSA 3903 (human/skin)); 32 µg/mL in assay [2] (MRSA 3865 (human/skin)); not below 128 µg/mL in assay [3] (MRSA 3823 (human/nose)); 32 µg/mL in assay [4] (MRSA 3876 (human/skin)); 32 µg/mL in assay [5] (MRSA 3799 (human/nose)); not below 128 µg/mL in [6] (MRSA 3795 (human/nose)). In addition, the MIC in assay [7] (MRSA 3A585 (human/blood)) is not below 8 µg/mL.

For `O=c1cc(-c2ccccc2)oc2cc(O)cc(O)c12` [Chrysin, chrysin], the MIC in assay [8] (setting [12]) and in assay [9] (setting [13]) was more than 1020 µg/mL each time.

Turning to `O=C(O[C@@H]1Cc2c(O)cc(O)cc2O[C@@H]1c1cc(O)c(O)c(O)c1)c1cc(O)c(O)c(O)c1` [Epigallocatechin gallate, epigallocatechin gallate], the “fold decrease of bacitracin MBC by antioxidant” value in assay [8] (antioxidant 0.5 μg/ml) is 16 fold; in assay [9] (MRSA, antioxidant 0.5 μg/ml), more than 32 fold. Also, the MIC in assay [8] was 128 µg/mL and 64 µg/mL; in [9] (MRSA, antioxidant alone) it was 512 µg/mL and 256 µg/mL. In addition, in assay [10], the “growth of MRSA with bacitracin plus antioxidant” value (from here on “growth of MRSA”) was “significantly inhibited the growth of MRSA”. The “optical density of MRSA after 18 h culture: inhibition of growth in combination with bacitracin” value in assay [10] was “significantly inhibited MRSA”.

`Oc1cc(O)c2c(c1)OC(c1ccc(O)c(O)c1)C(O)C2` (stereo not drawn) [Catechin(+), catechin]: the MIC in assay [8] is more than 1024 µg/mL; in assay [9] (MRSA, antioxidant alone), more than 1024 µg/mL.

`O=C(O)C=Cc1ccccc1` [Cinnamic acid, cinnamic acid]: the MIC in assay [8] (setting [12]) and in assay [9] (setting [13]) was more than 1020 µg/mL throughout.

As to `O=C(OC[C@H]1O[C@@H](OC(=O)c2cc(O)c(O)c(OC(=O)c3cc(O)c(O)c(O)c3)c2)[C@H](OC(=O)c2cc(O)c(O)c(OC(=O)c3cc(O)c(O)c(O)c3)c2)[C@@H](OC(=O)c2cc(O)c(O)c(OC(=O)c3cc(O)c(O)c(O)c3)c2)[C@@H]1OC(=O)c1cc(O)c(O)c(OC(=O)c2cc(O)c(O)c(O)c2)c1)c1cc(O)c(O)c(OC(=O)c2cc(O)c(O)c(O)c2)c1` [Tannic acid, tannic acid], the MIC in [8] (setting [12]) is 256 µg/mL; in assay [8], 128 µg/mL; in [9] (Staphylococcus aureus), 512 µg/mL; in assay [9] (setting [13]) it was 1020 µg/mL. In addition, the “fold decrease of bacitracin MBC by antioxidant” value in [8] (antioxidant 0.5 μg/ml) turned out to be 8 fold; in assay [9] (MRSA, antioxidant 0.5 μg/ml) it was 4 fold. For the same molecule, the “growth of MRSA” value in assay [10] is “significantly inhibited the growth of MRSA”. Also, in assay [10], the “optical density of MRSA after 18 h culture: inhibition of growth in combination with bacitracin” value was “significantly inhibited MRSA”.

As for `O=C(O)c1ccccc1O` [Salicylic acid, salicylic acid], the MIC in assay [8] (setting [12]) and in assay [9] (setting [13]) was more than 1020 µg/mL in each case.

For the molecule `COc1ccc([C@@H]2CC(=O)c3c(O)cc(O[C@@H]4O[C@H](CO[C@@H]5O[C@@H](C)[C@H](O)[C@@H](O)[C@H]5O)[C@@H](O)[C@H](O)[C@H]4O)cc3O2)cc1O` [Hesperedin, hesperidin], the MIC in assay [8] is more than 1024 µg/mL; in assay [9] (MRSA, antioxidant alone) it was more than 1024 µg/mL.

As to `O=c1c(O)c(-c2ccc(O)c(O)c2)oc2cc(O)cc(O)c12` [Quercetin, quercetin], the MIC in [8] (setting [12]) and in [9] (setting [13]) was more than 1020 µg/mL each time.

Regarding `CN(C)[C@@H]1C(O)=C(C(N)=O)C(=O)[C@@]2(O)C(O)=C3C(=O)c4c(O)cccc4[C@@](C)(O)[C@H]3C[C@@H]12` [TET, tetracycline], the MIC is 128 µg/mL in [1] (Staphylococcus aureus, MRSA); 32 µg/mL in assay [2] (Staphylococcus aureus, MRSA); 64 µg/mL in [3] (Staphylococcus aureus, MRSA); 16 µg/mL in assay [4] (Staphylococcus aureus, MRSA); 64 µg/mL in assay [5] (Staphylococcus aureus, MRSA); 16 µg/mL in assay [6] (Staphylococcus aureus, MRSA). Also, the MIC in [7] (Staphylococcus aureus, MRSA) is not below 8 µg/mL.

On to `O=C(O)/C=C/c1ccc(O)c(O)c1` [Caffeic acid, caffeic acid], for which the MIC in assay [8] (setting [12]) and in assay [9] (setting [13]) was more than 1020 µg/mL each time.

In the case of `COc1cc(/C=C/C(=O)O)cc(OC)c1O` [Sinapic acid, sinapic acid], the MIC in assay [8] (setting [12]) and in assay [9] (Staphylococcus aureus) was more than 1020 µg/mL each time.

With `O=C1C[C@@H](c2ccc(O)cc2)Oc2cc(O)cc(O)c21` [Narigenine, naringenin], the MIC in assay [8] (setting [12]) and in assay [9] (setting [13]) was more than 1020 µg/mL each time.

Turning to penicillin, the MIC in assay [1] (MRSA 3903 (human/skin)) came to 32 µg/mL; in assay [2] (MRSA 3865 (human/skin)) it was 16 µg/mL; in [3] (MRSA 3823 (human/nose)), 16 µg/mL; in [4] (MRSA 3876 (human/skin)), 16 µg/mL; in assay [5] (MRSA 3799 (human/nose)) it was 8 µg/mL; in assay [6] (MRSA 3795 (human/nose)) it was 16 µg/mL.

Turning to `CCn1cc(C(=O)O)c(=O)c2cc(F)c(N3CCNCC3)cc21` [NOR, norfloxacin], the MIC was 64 µg/mL in assay [1] (setting [14]); not below 128 µg/mL in [2] (setting [15]); 32 µg/mL in [3] (setting [16]); 0.25 µg/mL in [4] (setting [17]); 0.25 µg/mL in assay [5] (setting [18]); 0.5 µg/mL in assay [6] (setting [19]). The MIC in assay [11] was not below 128 µg/mL.

Regarding `O=C(N[C@H](CO)[C@H](O)c1ccc([N+](=O)[O-])cc1)C(Cl)Cl` [CL, chloramphenicol], the MIC is not below 128 µg/mL in [1] (setting [14]); not below 128 µg/mL in [2] (setting [15]); not below 128 µg/mL in assay [3] (setting [16]); less than 0.12 µg/mL in assay [4] (setting [17]); not below 128 µg/mL in assay [5] (setting [18]); not below 128 µg/mL in assay [6] (setting [19]). In addition, the MIC in assay [7] (Staphylococcus aureus, MRSA 3A585 (human/blood), read-out: MIC) is not above 0.25 µg/mL.

As for `O=c1c(O)c(-c2ccc(O)cc2O)oc2cc(O)cc(O)c12` [Morin, morin], the MIC in assay [8] (setting [12]) and in assay [9] (setting [13]) was more than 1020 µg/mL in each case.

For the molecule `COc1cc(C(=O)O)ccc1O` [Vanillic acid, vanillic acid], the MIC in assay [8] (setting [12]) and in assay [9] (setting [13]) was more than 1020 µg/mL each time.

`Oc1cc(O)c2c(c1)O[C@H](c1ccc(O)c(O)c1)[C@H](O)C2` [Epicatechin, epicatechin]: the MIC in [8] (setting [12]) and in assay [9] (setting [13]) was more than 1020 µg/mL throughout.

Consider `O=C1c2c(O)cc(O)cc2O[C@H](c2ccc(O)c(O)c2)[C@H]1O` [Taxifolin, taxifolin], for which the MIC in [8] (setting [12]) and in assay [9] (setting [13]) was more than 1020 µg/mL each time.

On to `Cc1cc(C(C)(C)C)c(O)c(C(C)(C)C)c1` [Butylated hydroxytoluene, butylated hydroxytoluene], for which the MIC in assay [8] (setting [12]) was 1020 µg/mL; in [8], more than 1024 µg/mL; in assay [9] (setting [13]), more than 1020 µg/mL. Further, the “synergistic killing with bacitracin” value in assay [8] (antioxidant 0.5 μg/ml) was “did not generate any synergistic killing”; in assay [9] (MRSA, antioxidant 0.5 μg/ml) it was “did not generate any synergistic killing”. Also, the “growth of MRSA” value in assay [10] is given as “did not show any synergistic effects with bacitracin”. The “optical density of MRSA after 18 h culture: inhibition of growth in combination with bacitracin” value in assay [10] (listed as BHT) is “no synergistic inhibition of growth; also recorded: did not show any synergistic antimicrobial effects”.
